Results as given in PubChem BioAssay (NCI).
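Tested at 5 concentrations; 48 h exposure; 96-well plates; endpoints linearly interpolated, else capped at highest concentration. TGI marks complete inhibition of growth.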

Legend:
Experiment in all cases: NCI anticancer screen, dose series, 48 h
[1] = system: 786-0 renal
[2] = system: A498 renal
[3] = system: A549 NSCLC
[4] = system: ACHN renal
[5] = system: CAKI-1 renal
[6] = system: CCRF-CEM leukemia
[7] = system: COLO 205 colon
[8] = system: DLD-1 colon
[9] = system: DMS 114 small cell lung
[10] = system: DMS 273 small cell lung
[11] = system: EKVX NSCLC
[12] = system: HCC-2998 colon
[13] = system: HCT-116 colon
[14] = system: HCT-15 colon
[15] = system: HL-60(TB) leukemia
[16] = system: HOP-18 NSCLC
[17] = system: HOP-62 NSCLC
[18] = system: HOP-92 NSCLC
[19] = system: HT29 colon
[20] = system: IGROV1 ovarian
[21] = system: K-562 leukemia
[22] = system: KM12 colon
[23] = system: KM20L2 colon
[24] = system: LOX IMVI melanoma
[25] = system: LXFL 529 NSCLC
[26] = system: M14 melanoma
[27] = system: M19-MEL melanoma
[28] = system: MALME-3M melanoma
[29] = system: MOLT-4 leukemia
[30] = system: NCI-H226 lung
[31] = system: NCI-H23 lung
[32] = system: NCI-H460 lung
[33] = system: NCI-H522 lung
[34] = system: OVCAR-3 ovarian
[35] = system: OVCAR-4 ovarian
[36] = system: OVCAR-5 ovarian
[37] = system: OVCAR-8 ovarian
[38] = system: RPMI-8226 leukemia
[39] = system: RXF 393 renal
[40] = system: SF-268 CNS
[41] = system: SF-295 CNS
[42] = system: SF-539 CNS
[43] = system: SK-MEL-2 melanoma
[44] = system: SK-MEL-28 melanoma
[45] = system: SK-MEL-5 melanoma
[46] = system: SK-OV-3 ovarian
[47] = system: SN12C renal
[48] = system: SNB-19 CNS
[49] = system: SNB-75 CNS
[50] = system: SNB-78 CNS
[51] = system: SR leukemia
[52] = system: SW-620 colon
[53] = system: TK-10 renal
[54] = system: U251 CNS
[55] = system: UACC-257 melanoma
[56] = system: UACC-62 melanoma
[57] = system: UO-31 renal
[58] = system: XF 498 CNS

O=C1C/C(Br)=C\c2ccccc2-c2ccccc21
TGI [1]: 2.91 µM | TGI [2]: 22.5 µM | TGI [3]: 21.8 µM | TGI [4]: 4.5 µM | TGI [5]: 5.86 µM | TGI [6]: 10.4 µM | TGI [7]: 12.4 µM | TGI [8]: 2.92 µM | TGI [9]: 6.58 µM | TGI [10]: 7.65 µM | TGI [11]: 21.8 µM | TGI [12]: 19.3 µM | TGI [13]: 3.71 µM | TGI [14]: 3.36 µM | TGI [15]: 5.7 µM | TGI [16]: 16.8 µM | TGI [17]: 9.67 µM | TGI [18]: 5.27 µM | TGI [19]: 4.72 µM | TGI [20]: 9.02 µM | TGI [21]: 9.65 µM | TGI [22]: 11.5 µM | TGI [23]: 8.28 µM | TGI [24]: 2.43 µM | TGI [25]: 3.5 µM | TGI [26]: 5.27 µM | TGI [27]: 4.65 µM | TGI [28]: 4.94 µM | TGI [29]: 7.81 µM | TGI [30]: 8.22 µM | TGI [31]: 9.56 µM | TGI [32]: 10.4 µM | TGI [33]: 1.59 µM | TGI [34]: 7.52 µM | TGI [35]: 7.88 µM | TGI [36]: 6.06 µM | TGI [37]: 5.41 µM | TGI [38]: 5.28 µM | TGI [39]: 3.04 µM | TGI [40]: 8.39 µM | TGI [41]: 16.9 µM | TGI [42]: 4.85 µM | TGI [43]: 12.2 µM | TGI [44]: 2.8 µM | TGI [45]: 16 µM | TGI [46]: 10.1 µM | TGI [47]: 4.8 µM | TGI [48]: 19.5 µM | TGI [49]: 7.65 µM | TGI [50]: 16.9 µM | TGI [51]: 2.73 µM | TGI [52]: 2.98 µM | TGI [53]: 14.5 µM | TGI [54]: 6.83 µM | TGI [55]: 14.5 µM | TGI [56]: 5.09 µM | TGI [57]: 6.87 µM | TGI [58]: 3.7 µM

FC(F)(F)c1ccc2nc(NCc3ccccc3)c(-c3ccccc3)nc2c1
TGI [1]: 53.1 µM | TGI [3]: > 100 µM | TGI [4]: > 100 µM | TGI [6]: > 100 µM | TGI [7]: > 100 µM | TGI [10]: > 100 µM | TGI [11]: > 100 µM | TGI [12]: > 100 µM | TGI [13]: > 100 µM | TGI [14]: > 100 µM | TGI [15]: 48.9 µM | TGI [16]: > 100 µM | TGI [17]: > 100 µM | TGI [18]: 17.9 µM | TGI [19]: > 100 µM | TGI [23]: > 100 µM | TGI [24]: 52.7 µM | TGI [25]: > 100 µM | TGI [27]: > 100 µM | TGI [28]: > 100 µM | TGI [29]: 72.5 µM | TGI [30]: > 100 µM | TGI [31]: > 100 µM | TGI [32]: > 100 µM | TGI [34]: > 100 µM | TGI [36]: > 100 µM | TGI [37]: > 100 µM | TGI [38]: 98.9 µM | TGI [39]: 71.5 µM | TGI [40]: > 100 µM | TGI [41]: > 100 µM | TGI [42]: > 100 µM | TGI [43]: > 100 µM | TGI [44]: > 100 µM | TGI [46]: > 100 µM | TGI [47]: > 100 µM | TGI [48]: > 100 µM | TGI [49]: > 100 µM | TGI [50]: > 100 µM | TGI [51]: 80.8 µM | TGI [52]: > 100 µM | TGI [53]: > 100 µM | TGI [54]: 86.8 µM | TGI [55]: > 100 µM | TGI [56]: > 100 µM | TGI [57]: 92.9 µM | TGI [58]: 43.5 µM
